In PMC5393024, “Discovery and characterization of natural tropolones as inhibitors of the antibacterial target CapF from Staphylococcus aureus” (Scientific Reports, 2015):

What was measured:
[1] = system: CapE; experiment: HPLC assay employing only CapE; assay type: biochemical, Staphylococcus aureus; details: CapF not present
Procedure: For that purpose, an HPLC-based assay monitoring the consumption of substrate and the appearance of product was employed (Fig. 2b)[12]. Whereas in the absence of 3-isopropenyl-tropolone the substrate was converted into product with nearly quantitative yield (91%), in the presence of 1 mM 3-isopropenyl-tropolone the peaks corresponding to substrate and product were largely absent (their combined areas were <18%). Instead, a large peak corresponding to the byproduct generated by the enzyme CapE under thermodynamic control was observed (80% yield as judged from the area under the curve). To confirm that inhibition of 3-isopropenyl-tropolone is specific for CapF we performed an additional experiment employing only CapE, which is the enzyme generating the substrate for CapF in the functional assay (Supplementary Information Figure S2).
Figure S2. Elution profile of compounds after incubation of the substrate UDP-D-GlcNAc with
CapE in the absence (red line) and presence (black line) of 3-isopropenyl-tropolone. In this
experiment CapF was not present. Experimental conditions are described in the Methods section.
The blue, red and green triangles indicate the elution peaks of product, substrate, and by-product,
(§1) (1 picture or pasted object on this page, not shown here)

[2] = system: CapF; experiment: NADPH consumption assay (absorbance at 340 nm); assay type: biochemical, Staphylococcus aureus; details: 0.02 μM CapF, 1.0 μM CapE, 125 μM UDP-D-GlcNAc, 250 μM NADPH, 37 °C
Procedure: A second assay monitoring the consumption of NADPH corroborates the inhibitory effect of 3-isopropenyl-tropolone (Fig. 2c). This assay is sensitive to the NADPH consumed by the SDR domain during the second reaction catalyzed by CapF (reduction step). […] Nevertheless, additional experiments were required to corroborate that idea (see below).
The enzymatic performance of CapF was evaluated by examining the consumption of NADPH spectrophotometrically, or by monitoring the disappearance of substrate and the formation of product by HPLC[9][12]. First, the time-dependent consumption of NADPH (monitored from a decrease of adsorption at 340 nm) was carried out in 384-well plates at a final volume of 50 μL. The solution contained 1.0 μM CapE, 0.02 μM CapF, 125 μM UDP-D-GlcNAc (substrate), 250 μM NADPH and fragment compounds at various concentrations in HBS supplemented with 0.005% (v/v) Tween-20 and 5% (v/v) DMSO. Each reaction mixture was incubated at 37 °C and the absorption at 340 nm was measured with a plate reader (PHERAstar, BMG Labtech, Durham, NC).
Figure S7. (a) Structure of compounds employed. (b-d) Time course of NADPH consumption by CapF in the presence of (b) tropolone, (c) 4-isopropyl-tropolone, and (d) 2-Cl-tropone. Increasing the concentration of compounds decreases the rate of consumption of NADPH. (e-g) Inhibition after two hours for (e) tropolone, (f) 4-isopropyl-tropolone, and (g) 2-Cl-tropone. Concentration of CapE and CapF was 1.0 µM and 0.02 µM, respectively. Concentration of NADPH and UDP-D-GlcNAc was 250 µM and 125 µM, respectively. The change of absorbance was calculated with respect to a control assay in the absence of CapF.
as §1

[3] = system: CapF reconstituted with Zn^2+; experiment: FluoZin-3 binding competition assay; design: species or system Staphylococcus aureus
Procedure: Figure 3 Binding of 3-isopropenyl-tropolone to CapF requires Zn^2+. CapF (150 μM) reconstituted with Zn^2+ was titrated with 1.65 mM inhibitor in the absence (a) or the presence (b) of 1 mM EDTA. The upper panels correspond to the titration data, and the lower panels to the integrated binding isotherms. (c) Binding competition assay. CapF (1.0 μM) reconstituted with Zn^2+ in the presence of the Zn^2+-sensitive dye FluoZin-3 (1.0 μM) was titrated with 3-isopropenyl-tropolone (λEX = 490 nm; λEM = 520 nm).
Second, the fluorescence of the Zn^2+-specific indicator FluoZin-3[19][20] was examined in the presence of CapF. The signal of FluoZin-3 increases dramatically in the presence of Zn^2+ ions when the metal is accessible to the dye. […] In contrast, the fluorescence of FluoZin-3 with apo-CapF, or with holo-CapF in the presence of 3-isopropenyl-tropolone, was negligible.
Fluorescence measurements were carried out using the Zn^2+-sensitive dye FluoZin-3 (Life Technologies) in a buffer composed of 10 mM HEPES, 150 mM NaCl (pH 7.4) supplemented with 5% (v/v) DMSO at 25 °C. The fluorescence intensities were measured in a plate reader (PHERAstar, BMG Labtech, Durham, NC) with excitation and emission wavelengths set to 490 nm and 520 nm, respectively.
Figure S3. Zn2+ governs the binding of inhibitor to CapF. […]
from ZnCl2) with 1.65 mM 3-isopropenyl-tropolone. (b) Fluorescence of the Zn2+-sensitive dye […]

[4] = system: CapFΔ57-70; experiment: DSC thermal stability of CapFΔ57-70; assay type: binding, Staphylococcus aureus; details: 24 μM protein, 240 μM inhibitor
Procedure: Thermal stability of CapF was examined by DSC in a ultrasensitive VP-capillary micro-calorimeter (Microcal). Prior to the experiment the protein was equilibrated in a buffer composed of 50 mM HEPES (pH 7.5), 50 mM NaCl and 5% DMSO. The concentration of protein and inhibitor were adjusted to 24 μM and 240 μM, respectively. The samples were heated between 10 and 110 °C at a scan rate of 1 °C/min. Data analysis was carried out with ORIGIN7 using a two-state transition model.
Figure S6. Thermal stability of CapF examined with DSC. (a) CapFΔ57-70, and (b) CapFΔ57-70
in the presence of 3-isopropenyl-tropolone. Concentration of CapF and inhibitor was 24 µM and
240 µM, respectively. Experimental data and fitting curves are represented in black and red lines,
as §1

C=C(C)c1ccccc(=O)c1O [3-isopropenyl-tropolone]
HPLC profile of the reaction products of CapE in presence of inhibitor [1]: not altered
inhibition of NADPH consumption [2]: rate of consumption of NADPH slowed down as the concentration of inhibitor increases
inhibition of NADPH consumption ([2]; listed as 3-isopropylen-tropolone): inhibited the consumption of NADPH in a concentration-dependent basis
inflexion point of FluoZin-3 fluorescence signal vs concentration of compound ([3]; CapF 1.0 μM, FluoZin-3 1.0 μM, 25 °C): 51 µM
fluorescence of FluoZin-3 with holo-CapF in the presence of compound ([3]; CapF 1 µM, compound 1.0 mM): negligible
ΔTM (decrease in thermal stability) [4]: 6.3 ± 0.2 °C
TM ([4]; CapFΔ57-70 alone 60.7 ± 0.1): 54.4 ± 0.1 °C
